The values below come from article PMC9292294 (Chemmedchem, 2021).

Assay [1] concerns the target human β‐FXIIa (Homo sapiens, UniProt P00748). The format is biochemical.
In assay [2] the target is human α‐thrombin (factor IIa) (Homo sapiens, UniProt P00734). The format is biochemical.
Assay [3] has as its target human Factor Xa (Homo sapiens, UniProt P00742). Kind of assay: FXa inhibition assay, fluorogenic substrate Boc‐Ile‐Glu‐Gly‐Arg‐AMC. The class given is biochemical.
Assay [4] deals with porcine trypsin (Sus scrofa, UniProt P00761). Kind of assay: Trypsin inhibition assay, fluorogenic substrate Z‐Gly‐Gly‐Arg‐AMC. The format is biochemical. Particulars: for inhibition at 5 µM: read-out: Trypsin inhibition % at 5 μM.
The target in assay [5] is FXIIa (Homo sapiens, UniProt P00748). Kind of assay: Medium‐throughput screening. The format is biochemical. Conditions: read-out: Inhibition @100 nM [in MTS] FXIIa.
Assay [6] addresses thrombin (FIIa) (Homo sapiens, UniProt P00734). Kind of assay: Medium‐throughput screening. The class given is biochemical. Conditions: read-out: Inhibition @100 nM [in MTS] FIIa.
In assay [7] the test system is human pooled plasma. Kind of assay: In vitro plasma coagulation assay, activated partial thromboplastin time. Conditions: 200 μM, fold increase compared to DMSO.

Sequence of porcine trypsin (P00761 9-231): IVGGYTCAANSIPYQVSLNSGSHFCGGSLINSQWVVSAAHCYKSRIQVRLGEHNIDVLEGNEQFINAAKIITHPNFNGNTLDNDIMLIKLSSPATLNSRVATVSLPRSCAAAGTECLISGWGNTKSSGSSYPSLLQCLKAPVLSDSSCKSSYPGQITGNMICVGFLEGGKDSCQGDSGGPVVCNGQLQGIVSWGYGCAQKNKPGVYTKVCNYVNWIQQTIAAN
Sequence of human Factor Xa (P00742 235-488 limits assumed): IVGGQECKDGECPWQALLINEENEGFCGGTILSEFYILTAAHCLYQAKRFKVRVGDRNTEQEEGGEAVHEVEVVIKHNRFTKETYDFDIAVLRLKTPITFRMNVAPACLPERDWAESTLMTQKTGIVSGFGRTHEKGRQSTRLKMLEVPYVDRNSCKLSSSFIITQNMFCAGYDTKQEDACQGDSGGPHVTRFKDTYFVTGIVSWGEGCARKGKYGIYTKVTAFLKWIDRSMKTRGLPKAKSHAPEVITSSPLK
Sequence of human Factor Xa (P00742 41-179 limits assumed): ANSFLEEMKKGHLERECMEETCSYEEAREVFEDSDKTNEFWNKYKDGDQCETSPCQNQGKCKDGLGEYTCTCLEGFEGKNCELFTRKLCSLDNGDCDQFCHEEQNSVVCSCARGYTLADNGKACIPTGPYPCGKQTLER
Sequence of FXIIa (P00748 373-615 limits assumed, other chains not shown): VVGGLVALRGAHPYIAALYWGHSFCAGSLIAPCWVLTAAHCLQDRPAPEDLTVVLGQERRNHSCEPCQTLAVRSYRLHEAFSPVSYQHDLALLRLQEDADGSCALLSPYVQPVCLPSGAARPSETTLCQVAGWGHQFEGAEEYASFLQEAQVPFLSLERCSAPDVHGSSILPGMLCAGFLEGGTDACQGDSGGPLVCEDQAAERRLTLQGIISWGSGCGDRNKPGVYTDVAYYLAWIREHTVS
Sequence of human β‐FXIIa (P00748 373-615 limits assumed, other chains not shown): as above

Broadly, the IC50 is the concentration that inhibits the measured activity by half. Read a low IC50 as inhibition by little substance. The term inhibition denotes the change of the read-out against control, counted positive when it falls. As for `Cc1cccc(-c2nc(N)n(C(=O)[C@H]3CCCc4ccccc43)n2)n1` [33 b, (S)‐(5‐Amino‐3‐(6‐methylpyridin‐2‐yl)‐1H‐1,2,4‐triazol‐1‐yl)(1,2,3,4‐tetrahydronaphthalen‐1‐yl)‐methanone], the concentration for half-maximal inhibition (IC50) was 214 ± 35 nM in assay [1], 819 ± 15 nM in assay [2], more than 5 µM in assay [3] and more than 5 µM in assay [4]. In addition, the inhibition at 0.1 µM in assay [5] was 36%; in assay [6] it was 5%.

In the case of `Nc1nc(-c2nccc3ccccc23)nn1C(=O)c1ccccc1` [41 a, (5‐Amino‐3‐(isoquinolin‐1‐yl)‐1H‐1,2,4‐triazol‐1‐yl)(phenyl)methanone], the IC50 in assay [1] is 236 ± 5 nM; in assay [2], 63 ± 1 nM; in assay [3] it was more than 5 µM; in assay [4] it was more than 5 µM.

`CC(C)(C)c1nc(N)n(C(=O)Cc2ccccc2I)n1` [32 e, 1‐(5‐Amino‐3‐(tert‐butyl)‐1H‐1,2,4‐triazol‐1‐yl)‐2‐(2‐iodophenyl)ethan‐1‐one]: the IC50 in assay [1] was more than 5000 nM; in assay [2] it was more than 5000 nM; in assay [3], more than 5 µM; in assay [4], more than 5 µM. Moreover, the values for the inhibition at 0.1 µM in assay [5] and in assay [6] were 3% and 1%, respectively.

As to `Nc1nc(-c2ccc3ccccc3n2)nn1C(=O)c1ccccc1` [40 a, (5‐Amino‐3‐(quinoline‐2‐yl)‐1H‐1,2,4‐triazol‐1‐yl)(phenyl)methanone], the IC50 in assay [1] was 13 ± 2 nM; in assay [2] it was 124 ± 10 nM; in assay [3], more than 5 µM; in assay [4], more than 5 µM.

In the case of `Nc1nc(-c2cnccn2)nn1C(=O)[C@H]1CCCc2ccccc21` [33 c, (S)‐(5‐Amino‐3‐(pyrazin‐2‐yl)‐1H‐1,2,4‐triazol‐1‐yl)(1,2,3,4‐tetrahydronaphthalen‐1‐yl)methanone], the IC50 was 106 ± 13 nM in assay [1], 143 ± 5 nM in assay [2], more than 5 µM in assay [3] and more than 5 µM in assay [4]. The inhibition at 0.1 µM in assay [5] was determined as 80%; in assay [6], 36%. Further, in assay [7], the “aPTT, fold” value was found to be 2.7 fold.

Turning to `[H]/N=C(/N)c1ccc(NCc2nc3cc(C(=O)N(CCC(=O)O)c4ccccn4)ccc3n2C)cc1` [Dabigatran, reference compound], the concentration for half-maximal inhibition (IC50) in assay [1] is more than 5000 nM. Further, the inhibition at 1 µM in assay [3] (read-out: FXa inhibition % at 1 μM) amounted to 34%. Further, in assay [4], the inhibition at 5 µM stood at 59%. Further, the inhibition at 0.1 µM in assay [5] is -1%; in assay [6] it was 91%.

Take `Cc1nc(-c2cccs2)ccc1-c1nc(N)n(C(=O)[C@H]2CCCc3ccccc32)n1` [33 d, (S)‐(5‐Amino‐3‐(2‐methyl‐6‐(thiophen‐2‐yl)pyridin‐3‐yl)‐1H‐1,2,4‐triazol‐1‐yl)(1,2,3,4‐tetrahydro‐naphthalen‐1‐yl)methanone]: the IC50 in assay [1] is 1140 ± 334 nM; in assay [2], more than 5000 nM; in assay [3], more than 5 µM; in assay [4], more than 5 µM. Also, the inhibition at 0.1 µM came to 26% in assay [5] and 0% in assay [6].

As for `Nc1nc(-c2ccc(F)cc2)nn1C(=O)[C@H]1CCCc2ccccc21` [33 f, (S)‐(5‐Amino‐3‐(4‐fluorophenyl)‐1H‐1,2,4‐triazol‐1‐yl)(1,2,3,4‐tetrahydronaphthalen‐1‐yl)‐methanone], the IC50 in assay [1] was approximately 2000 nM; in assay [2], more than 5000 nM; in assay [3], more than 5 µM; in assay [4], more than 5 µM. The inhibition at 0.1 µM in assay [5] was 29%; in assay [6], 0%.

In the case of `Nc1nc(-c2nccc3ccccc23)nn1C(=O)c1ccc2ccccc2c1` [41 c, (5‐Amino‐3‐(isoquinolin‐1‐yl)‐1H‐1,2,4‐triazol‐1‐yl)(naphthalen‐2‐yl)methanone], the IC50 is more than 5000 nM in assay [1], more than 5 µM in assay [3] and more than 5 µM in assay [4].

`Cc1nc(-c2cccs2)ccc1-c1nc(N)n(C(=O)Cc2ccccc2I)n1` [32 d, 1‐(5‐Amino‐3‐(2‐methyl‐6‐(thiophen‐2‐yl)pyridin‐3‐yl)‐1H‐1,2,4‐triazol‐1‐yl)‐2‐(2‐iodophenyl)‐ethan‐1‐one]: the IC50 is 716 ± 82 nM in assay [1], more than 5000 nM in assay [2], more than 5 µM in assay [3] and more than 5 µM in assay [4]. The inhibition at 0.1 µM was found to be 8% in assay [5] and 0% in assay [6].

Turning to `Nc1nc(-c2ccccn2)nn1C(=O)[C@H]1CCCc2ccccc21` [33 a, (S)‐(5‐Amino‐3‐(pyridin‐2‐yl)‐1H‐1,2,4‐triazol‐1‐yl)(1,2,3,4‐tetrahydro‐naphthalen‐1‐yl)‐methanone], the half-maximal inhibitory concentration (IC50) in assay [4] was more than 5 µM. The figures for the inhibition at 0.1 µM in assay [5] and in assay [6] were 73% and 10%, respectively.

Regarding `Cc1nc2ccccc2nc1-c1nc(N)n(C(=O)[C@H]2CCCc3ccccc32)n1` [33 h, (S)‐(5‐Amino‐3‐(3‐methylquinoxalin‐2‐yl)‐1H‐1,2,4‐triazol‐1‐yl)(1,2,3,4‐tetrahydronaphthalen‐1‐yl)methanone], the IC50 in assay [1] is 122 ± 35 nM; in assay [2] it was more than 5000 nM; in assay [3], more than 5 µM; in assay [4], more than 5 µM. In addition, the inhibition at 0.1 µM in assay [5] came to 81%; in assay [6] it was 0%.

Consider `Nc1nc(-c2ccc3ccccc3n2)nn1C(=O)c1cccc2ccccc12` [40 b, (5‐Amino‐3‐(quinolin‐2‐yl)‐1H‐1,2,4‐triazol‐1‐yl)(naphthalen‐1‐yl)methanone], for which the IC50 in assay [1] is 8 ± 2 nM; in assay [2], 348 ± 15 nM; in assay [4], more than 5 µM.

With `Nc1nc(-c2cnc3ccccc3n2)nn1C(=O)c1cccc2ccccc12` [39 b, (5‐Amino‐3‐(quinoxalin‐2‐yl)‐1H‐1,2,4‐triazol‐1‐yl)(naphthalen‐1‐yl)methanone], the IC50 is more than 5000 nM in assay [2], more than 5 µM in assay [3] and more than 5 µM in assay [4].

With `CC(C)(C)c1nc(N)n(C(=O)[C@H]2CCCc3ccccc32)n1` [33 e, (S)‐(5‐Amino‐3‐(tert‐butyl)‐1H‐1,2,4‐triazol‐1‐yl)(1,2,3,4‐tetrahydronaphthalen‐1‐yl)methanone], the half-maximal inhibitory concentration (IC50) in assay [1] was more than 5000 nM; in assay [2], more than 5000 nM; in assay [3] it was more than 5 µM; in assay [4], more than 5 µM. The inhibition at 0.1 µM came to 0% in assay [5] and 1% in assay [6].

In turn, `Nc1nc(-c2ccccn2)nn1C(=O)Cc1ccccc1I` [32 a, 1‐(5‐Amino‐3‐(pyridin‐2‐yl)‐1H‐1,2,4‐triazol‐1‐yl)‐2‐(2‐iodophenyl)ethan‐1‐one] showed an IC50 in assay [4] of more than 5 µM. For the same molecule, the inhibition at 0.1 µM came out at 54% in assay [5] and 2% in assay [6].

Consider `Cc1cccc(-c2nc(N)n(C(=O)Cc3ccccc3I)n2)n1` [32 b, 1‐(5‐Amino‐3‐(6‐methylpyridin‐2‐yl)‐1H‐1,2,4‐triazol‐1‐yl)‐2‐(2‐iodophenyl)ethan‐1‐one], for which the IC50 in assay [1] was 73 ± 22 nM; in assay [2], more than 5000 nM; in assay [3] it was more than 5 µM; in assay [4], more than 5 µM. Further, the inhibition at 0.1 µM is 54% in assay [5] and 0% in assay [6].

`Nc1nc(-c2cnccn2)nn1C(=O)Cc1ccccc1I` [32 c, 1‐(5‐Amino‐3‐(pyrazin‐2‐yl)‐1H‐1,2,4‐triazol‐1‐yl)‐2‐(2‐iodophenyl)ethan‐1‐one]: the half-maximal inhibitory concentration (IC50) in assay [1] is 65 ± 9 nM; in assay [2], 1690 ± 167 nM; in assay [3] it was more than 5 µM; in assay [4], more than 5 µM. Also, the inhibition at 0.1 µM in assay [5] stood at 75%; in assay [6], 15%.

Regarding `Nc1nc(-c2nccc3ccccc23)nn1C(=O)[C@H]1CCCc2ccccc21` [33 i, (S)‐(5‐Amino‐3‐(isoquinolin‐1‐yl)‐1H‐1,2,4‐triazol‐1‐yl)(1,2,3,4‐tetrahydronaphthalen‐1‐yl)‐methanone], the IC50 in assay [1] is 547 ± 58 nM; in assay [2], 38 ± 9 nM; in assay [3] it was more than 5 µM; in assay [4], more than 5 µM. Also, the inhibition at 0.1 µM in assay [5] came to 14%; in assay [6], 62%.

As to `O=C(NC[C@H]1CN(c2ccc(N3CCOCC3=O)cc2)C(=O)O1)c1ccc(Cl)s1` [Rivaroxaban, reference compound], the concentration for half-maximal inhibition (IC50) in assay [1] was more than 5000 nM; in assay [4], more than 5 µM. The inhibition at 0.1 µM in assay [5] was -1%; in assay [6], 1%.

As for `Nc1nc(-c2ccccc2C(=O)N2CCCCC2)nn1C(=O)[C@H]1CCCc2ccccc21` [33 j, (S)‐(2‐(5‐Amino‐1‐(1,2,3,4‐tetrahydronaphthalene‐1‐carbonyl)‐1H‐1,2,4‐triazol‐3‐yl)phenyl)‐(piperidin‐1‐yl)methanone], the IC50 in assay [1] was 1520 ± 182 nM; in assay [2], 5700 ± 330 nM; in assay [3], more than 5 µM; in assay [4], more than 5 µM. For the same molecule, the values for the inhibition at 0.1 µM in assay [5] and in assay [6] were 8% and 1%, respectively.

`Nc1nc(-c2cnc3ccccc3n2)nn1C(=O)[C@H]1CCCc2ccccc21` [39 a, (S)‐(5‐Amino‐3‐(quinoxalin‐2‐yl)‐1H‐1,2,4‐triazol‐1‐yl)(1,2,3,4‐tetrahydronaphthalen‐1‐yl)‐methanone]: the values for the IC50 in assay [1], in assay [2] and in assay [3] were 33 ± 7 nM, more than 5000 nM and more than 5 µM, respectively. The “fold improved FXIIa inhibitory activity” value in assay [1] (versus parent 33 h (122 nM vs. 33 nM)) turned out to be 3.7 fold. In assay [4], the inhibition at 5 µM was found to be 32%.
